{"source": "patent US7163950B1", "about": "“Surfactants as malarial chloroguine resistance reversal agents” (priority 2000, dated 2007)", "key": {"P. falciparum [1]": {"system": "P. falciparum", "settings": "read-out: chloroquine IC50, control (no NPE added); control without NPE, used to calculate the degree of chloroquine resistance", "protocol": "(§1) NPE solutions with increasing average EO content were tested for anti-P. falciparum activity and the IC50S ? of these materials were determined using a non-linear regression analysis.\n(§2) P. falciparum cultures were grown in A+ blood obtained by venipuncture of volunteers. Cultures of the laboratory lines ItG and 3D7 [Dolan, 1993] and the patient isolates were maintained by the method of Trager and Jensen [Trager, 1976] using RPMI 1640 supplemented with 10% human serum and 50 μM hypoxanthine. […] In vitro drug susceptibility testing was performed using the WHO In Vitro Micro Test (Mark III) [1997]. The IC50 values were determined using a non-linear regression analysis of the dose-response curve."}, "P. falciparum [2]": {"system": "P. falciparum", "assay": "microbe, parasite or virus in culture", "settings": "Plasmodium falciparum, read-out: chloroquine IC50, control (no NPE added), control without NPE, used to calculate the degree of chloroquine resistance", "protocol": "as §1, §2"}}, "note": "Where two headings read alike, the source gives them in different places.", "data": [{"molecule": "CCN(CC)CCCC(C)Nc1ccnc2cc(Cl)ccc12", "note": "(centres unmarked) [chloroquine]", "values": [{"measurement": "IC50", "setting": "P. falciparum [1]", "value": "0.274 ± 0.056", "unit": "µM"}, {"measurement": "IC50", "setting": "P. falciparum [2]", "value": "0.24 ± 0.06", "unit": "µM"}]}]}
